This is an account of results in patent US20140187475A1, “Lantibiotic Compositions and Methods For Preventing or Treating Mastitis” (Medela Holding AG, priority 2012, published 2014).

The experiment relates to bacteria. Kind of experiment: antimicrobial activity of nisin preparations placed on a skin or agar surface. The class given is cell-based. The source says:
Most important in this embodiment is the principle that nisin must be placed in the external aqueous phase of this preparation. […] In an ointment preparation, it is retained by the lipid phase and fails to dissipate and kill bacteria.

Nisin: the antimicrobial activity result (nisin in an ointment preparation with little or no water) is “largely inactive” and the antimicrobial activity entry (nisin in the external aqueous phase of an oil in water emulsion, placed on a skin or agar surface) is reported as “highly active”.
